This is an account of results in the supplement of paper PMC11368000.

The subject of one assay is 1083 (donor line of iPSC-derived cardiomyocytes). Description: POD (EC10) for decrease in total cell number (cytotoxicity) vs vehicle; higher = less potent (higher point of departure). The settings on record: exposure time: 90 min. The method in brief: (§1)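 In 384-well plates, cardiomyocytes made from iPSCs of 16 human donors were cultured for 14 days before a 90 min, 37 °C exposure to final concentrations of 0.1, 1, 10 and 100 µM with 0.5% DMSO. Per-field nuclear counts from MetaXpress, normalised to vehicle, were fitted with hierarchical Bayesian Hill models using a 10% decrease. These fits yielded a cytotoxicity point of departure for each donor.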
The molecule `O=S(=O)(O)C(F)(F)C(F)(F)C(F)(F)C(F)(F)C(F)(F)C(F)(F)C(F)(F)C(F)(F)F` [Perfluorooctanesulfonic_acid] gave a POD vs vehicle greater than 100 µM.
The molecule `O=C(O)C(F)(F)C(F)(F)C(F)(F)C(F)(F)C(F)(F)C(F)(F)C(F)(F)F` [Perfluorooctanoic_acid] had a POD vs vehicle greater than 100 µM.
On the same count and under the same terms, the figure for `O=C(O)C(F)(F)C(F)(F)C(F)(F)C(F)(F)F` [Perfluoropentanoic_acid] is greater than 100 µM; for `O=C(O)C(F)(F)C(F)(F)F` [Perfluoropropanoic_acid] it is greater than 100 µM.
Turning to `O=C(O)C(F)(F)C(F)(F)C(F)(F)C(F)(F)C(F)(F)C(F)(F)C(F)(F)C(F)(F)C(F)(F)C(F)(F)F` [Perfluoroundecanoic_acid], the POD vs vehicle is greater than 100 µM.

A further assay deals with 1118 (donor line of iPSC-derived cardiomyocytes). The assay is described as above. The note with it: exposure time: 90 min. The method in brief:
as §1
On to `O=S(=O)(O)C(F)(F)C(F)(F)C(F)(F)C(F)(F)C(F)(F)C(F)(F)C(F)(F)C(F)(F)F` [Perfluorooctanesulfonic_acid], for which the POD vs vehicle is greater than 100 µM.
Same read-out and setting: the figure for `O=C(O)C(F)(F)C(F)(F)C(F)(F)C(F)(F)C(F)(F)C(F)(F)C(F)(F)F` [Perfluorooctanoic_acid] is greater than 100 µM.
Turning to `O=C(O)C(F)(F)C(F)(F)C(F)(F)C(F)(F)F` [Perfluoropentanoic_acid], the POD vs vehicle was greater than 100 µM.
Same read-out and setting: the figure for `O=C(O)C(F)(F)C(F)(F)F` [Perfluoropropanoic_acid] is greater than 100 µM.
Same read-out and setting: the figure for `O=C(O)C(F)(F)C(F)(F)C(F)(F)C(F)(F)C(F)(F)C(F)(F)C(F)(F)C(F)(F)C(F)(F)C(F)(F)F` [Perfluoroundecanoic_acid] is greater than 100 µM.

The next assay deals with 11235 (donor line of iPSC-derived cardiomyocytes). Described as above. The note with it: exposure time: 90 min. The method in brief: as §1
Turning to `O=S(=O)(O)C(F)(F)C(F)(F)C(F)(F)C(F)(F)C(F)(F)C(F)(F)C(F)(F)C(F)(F)F` [Perfluorooctanesulfonic_acid], the POD vs vehicle is greater than 100 µM.
On the same count and under the same terms, the figure for `O=C(O)C(F)(F)C(F)(F)C(F)(F)C(F)(F)C(F)(F)C(F)(F)C(F)(F)F` [Perfluorooctanoic_acid] is greater than 100 µM; for `O=C(O)C(F)(F)C(F)(F)C(F)(F)C(F)(F)F` [Perfluoropentanoic_acid] it is greater than 100 µM.
The same measure, in the same setting: the figure for `O=C(O)C(F)(F)C(F)(F)F` [Perfluoropropanoic_acid] is greater than 100 µM; for `O=C(O)C(F)(F)C(F)(F)C(F)(F)C(F)(F)C(F)(F)C(F)(F)C(F)(F)C(F)(F)C(F)(F)C(F)(F)F` [Perfluoroundecanoic_acid] it is greater than 100 µM.

The subject of the next assay is 1309 (donor line of iPSC-derived cardiomyocytes). The assay is described as above. The settings on record: exposure time: 90 min. The method in brief:
as §1
Molecule `O=S(=O)(O)C(F)(F)C(F)(F)C(F)(F)C(F)(F)C(F)(F)C(F)(F)C(F)(F)C(F)(F)F` [Perfluorooctanesulfonic_acid] came in with a POD vs vehicle of 88.7 µM.
Same read-out and setting: the figure for `O=C(O)C(F)(F)C(F)(F)C(F)(F)C(F)(F)C(F)(F)C(F)(F)C(F)(F)F` [Perfluorooctanoic_acid] is greater than 100 µM; for `O=C(O)C(F)(F)C(F)(F)C(F)(F)C(F)(F)F` [Perfluoropentanoic_acid] it is greater than 100 µM.
`O=C(O)C(F)(F)C(F)(F)F` [Perfluoropropanoic_acid] came in with a POD vs vehicle greater than 100 µM.
Molecule `O=C(O)C(F)(F)C(F)(F)C(F)(F)C(F)(F)C(F)(F)C(F)(F)C(F)(F)C(F)(F)C(F)(F)C(F)(F)F` [Perfluoroundecanoic_acid] came in with a POD vs vehicle greater than 100 µM.

In the next assay the test system is 1368 (donor line of iPSC-derived cardiomyocytes). Described as above. The settings on record: exposure time: 90 min. The method in brief:
as §1
`O=S(=O)(O)C(F)(F)C(F)(F)C(F)(F)C(F)(F)C(F)(F)C(F)(F)C(F)(F)C(F)(F)F` [Perfluorooctanesulfonic_acid] returned a POD vs vehicle greater than 100 µM.
As for `O=C(O)C(F)(F)C(F)(F)C(F)(F)C(F)(F)C(F)(F)C(F)(F)C(F)(F)F` [Perfluorooctanoic_acid], the POD vs vehicle was greater than 100 µM.
The molecule `O=C(O)C(F)(F)C(F)(F)C(F)(F)C(F)(F)F` [Perfluoropentanoic_acid] yielded a POD vs vehicle greater than 100 µM.
The same measure, in the same setting: the figure for `O=C(O)C(F)(F)C(F)(F)F` [Perfluoropropanoic_acid] is greater than 100 µM.
Same read-out and setting: the figure for `O=C(O)C(F)(F)C(F)(F)C(F)(F)C(F)(F)C(F)(F)C(F)(F)C(F)(F)C(F)(F)C(F)(F)C(F)(F)F` [Perfluoroundecanoic_acid] is greater than 100 µM.

Another assay has as its system 1392 (donor line of iPSC-derived cardiomyocytes). Described as above. The note with it: exposure time: 90 min. The method in brief:
as §1
Regarding `O=S(=O)(O)C(F)(F)C(F)(F)C(F)(F)C(F)(F)C(F)(F)C(F)(F)C(F)(F)C(F)(F)F` [Perfluorooctanesulfonic_acid], the POD vs vehicle was greater than 100 µM.
Same read-out and setting: the figure for `O=C(O)C(F)(F)C(F)(F)C(F)(F)C(F)(F)C(F)(F)C(F)(F)C(F)(F)F` [Perfluorooctanoic_acid] is greater than 100 µM; for `O=C(O)C(F)(F)C(F)(F)C(F)(F)C(F)(F)F` [Perfluoropentanoic_acid] it is greater than 100 µM.
Still for that read-out and setting: the figure for `O=C(O)C(F)(F)C(F)(F)F` [Perfluoropropanoic_acid] is greater than 100 µM.
In turn, `O=C(O)C(F)(F)C(F)(F)C(F)(F)C(F)(F)C(F)(F)C(F)(F)C(F)(F)C(F)(F)C(F)(F)C(F)(F)F` [Perfluoroundecanoic_acid] showed a POD vs vehicle greater than 100 µM.

In a further assay the test system is 1434 (donor line of iPSC-derived cardiomyocytes). Described as above. The settings on record: exposure time: 90 min. The method in brief:
as §1
`O=S(=O)(O)C(F)(F)C(F)(F)C(F)(F)C(F)(F)C(F)(F)C(F)(F)C(F)(F)C(F)(F)F` [Perfluorooctanesulfonic_acid] came in with a POD vs vehicle greater than 100 µM.
On the same count and under the same terms, the figure for `O=C(O)C(F)(F)C(F)(F)C(F)(F)C(F)(F)C(F)(F)C(F)(F)C(F)(F)F` [Perfluorooctanoic_acid] is greater than 100 µM; for `O=C(O)C(F)(F)C(F)(F)C(F)(F)C(F)(F)F` [Perfluoropentanoic_acid] it is greater than 100 µM; for `O=C(O)C(F)(F)C(F)(F)F` [Perfluoropropanoic_acid] it is greater than 100 µM.
Same read-out and setting: the figure for `O=C(O)C(F)(F)C(F)(F)C(F)(F)C(F)(F)C(F)(F)C(F)(F)C(F)(F)C(F)(F)C(F)(F)C(F)(F)F` [Perfluoroundecanoic_acid] is greater than 100 µM.

The subject of another assay is 1516 (donor line of iPSC-derived cardiomyocytes). The assay is described as above. The note with it: exposure time: 90 min. The method in brief: as §1
`O=S(=O)(O)C(F)(F)C(F)(F)C(F)(F)C(F)(F)C(F)(F)C(F)(F)C(F)(F)C(F)(F)F` [Perfluorooctanesulfonic_acid]: the POD vs vehicle is greater than 100 µM.
Same read-out and setting: the figure for `O=C(O)C(F)(F)C(F)(F)C(F)(F)C(F)(F)C(F)(F)C(F)(F)C(F)(F)F` [Perfluorooctanoic_acid] is greater than 100 µM.
The same measure, in the same setting: the figure for `O=C(O)C(F)(F)C(F)(F)C(F)(F)C(F)(F)F` [Perfluoropentanoic_acid] is greater than 100 µM; for `O=C(O)C(F)(F)C(F)(F)F` [Perfluoropropanoic_acid] it is greater than 100 µM; for `O=C(O)C(F)(F)C(F)(F)C(F)(F)C(F)(F)C(F)(F)C(F)(F)C(F)(F)C(F)(F)C(F)(F)C(F)(F)F` [Perfluoroundecanoic_acid] it is greater than 100 µM.

For the next assay, the system named is 1518 (donor line of iPSC-derived cardiomyocytes). The assay is described as above. The note with it: exposure time: 90 min. The method in brief: as §1
Molecule `O=S(=O)(O)C(F)(F)C(F)(F)C(F)(F)C(F)(F)C(F)(F)C(F)(F)C(F)(F)C(F)(F)F` [Perfluorooctanesulfonic_acid] came in with a POD vs vehicle greater than 100 µM.
On the same count and under the same terms, the figure for `O=C(O)C(F)(F)C(F)(F)C(F)(F)C(F)(F)C(F)(F)C(F)(F)C(F)(F)F` [Perfluorooctanoic_acid] is greater than 100 µM; for `O=C(O)C(F)(F)C(F)(F)C(F)(F)C(F)(F)F` [Perfluoropentanoic_acid] it is greater than 100 µM; for `O=C(O)C(F)(F)C(F)(F)F` [Perfluoropropanoic_acid] it is greater than 100 µM.
On the same count and under the same terms, the figure for `O=C(O)C(F)(F)C(F)(F)C(F)(F)C(F)(F)C(F)(F)C(F)(F)C(F)(F)C(F)(F)C(F)(F)C(F)(F)F` [Perfluoroundecanoic_acid] is greater than 100 µM.

In a further assay the test system is 1531 (donor line of iPSC-derived cardiomyocytes). Described as above. The settings on record: exposure time: 90 min. The method in brief:
as §1
For `O=S(=O)(O)C(F)(F)C(F)(F)C(F)(F)C(F)(F)C(F)(F)C(F)(F)C(F)(F)C(F)(F)F` [Perfluorooctanesulfonic_acid], the POD vs vehicle was greater than 100 µM.
On the same count and under the same terms, the figure for `O=C(O)C(F)(F)C(F)(F)C(F)(F)C(F)(F)C(F)(F)C(F)(F)C(F)(F)F` [Perfluorooctanoic_acid] is greater than 100 µM; for `O=C(O)C(F)(F)C(F)(F)C(F)(F)C(F)(F)F` [Perfluoropentanoic_acid] it is greater than 100 µM.
On the same count and under the same terms, the figure for `O=C(O)C(F)(F)C(F)(F)F` [Perfluoropropanoic_acid] is greater than 100 µM; for `O=C(O)C(F)(F)C(F)(F)C(F)(F)C(F)(F)C(F)(F)C(F)(F)C(F)(F)C(F)(F)C(F)(F)C(F)(F)F` [Perfluoroundecanoic_acid] it is greater than 100 µM.
